Tests used:
[1] = system: corpus cavernosum penis; assay: Intracavernosal pressure increasing activity; format: in vivo, beagle; details: for Intracavernosal pressure increase: anesthetized beagle, intracavernosal injection, maximum up to 4 minutes from administration
Source text: Under anesthesia with thiopental, cannulae were indwelled in left cephalic vein (for infusion) and left femoral artery (for measuring blood pressure and heart rate) of a beagle. The epidermis was dissected from the top of penis to scrotum with an electrocautery to expose the albuguinea on the surface of the cavernous body. A cannula with a needle for measuring the inner pressure and administering a chemical was inserted into the cavernous body and (11α,15α,13E)-9-oxo-11,15-dihydroxy-16-(3-methoxy-methylphenyl)-17,18,19,20-tetranor-5-thiaprost-13-enoic acid methyl ester (methyl ester of the compound of formula (I-1) above, hereinafter abbreviated as methyl ester form) was administered in four kinds of dosage, i.e., 0.2, 2.0, 20, and 200 ng. As controls, 20 ng of PGE1 and physiological saline were used.
Through the cannula inserted into the corpus cavernosum penis, the chemical was injected in amounts of 100 μl and was followed by 300 μl saline injection. A difference between the maximum intra pressures up to 4 minutes from the administration and the intra pressure at the time of administration was taken as the value of intracavernosal pressure increase.

[2] = system: rat; details: in vivo, iv
Protocol: It has been confirmed that the compounds of the present invention of formula (I) have sufficiently low toxicity and are sufficiently safe for use as pharmaceutical preparations. For example, the maximal tolerated dose of methyl ester of the compound of formula (I-1) was 30 mg/kg weight or more for rat intravenous administration.

| Compound | Intracavernosal pressure increase ([1]; dose 0.2 ng/100 μl) | Intracavernosal pressure increase ([1]; dose 2.0 ng/100 μl) | Intracavernosal pressure increase ([1]; dose 20 ng/100 μl) | Intracavernosal pressure increase ([1]; dose 200 ng/100 μl) | Effect on intracavernosal pressure (in words) ([1]; beagle, 0.2 to 200 ng intracavernosal) | maximal tolerated dose [2] |
| --- | --- | --- | --- | --- | --- | --- |
| COCc1cccc(C[C@H](O)/C=C/[C@H]2[C@H](O)CC(=O)[C@@H]2CCSCCCC(=O)OC)c1 [Methyl ester form, (11α,15α,13E)-9-oxo-11,15-dihydroxy-16-(3-methoxy-methylphenyl)-17,18,19,20-tetranor-5-thiaprost-13-enoic acid methyl ester] | 4.3 ± 1.9 mmHg | 12.7 ± 8.7 mmHg | 28.3 ± 12.3 mmHg | 40.7 ± 16.6 mmHg | increased the intracavernosal pressure dose-dependently | ≥ 30 mg/kg weight |
| CCCCC[C@H](O)/C=C/[C@H]1[C@H](O)CC(=O)[C@@H]1CCCCCCC(=O)O [PGE1, prostaglandin E1, reference compound] | – | – | 29.0 ± 12.5 mmHg | – | – | – |

From US6710081B1, “Erection insufficiency remedies” (priority 1999, dated 2004)
